The test relates to RSV strain A2. The test is described as follows: in vitro cytoprotection assay against RSV in Hep2 cells. In kind it is cell-based. The note with it: human respiratory syncytial virus, HEp-2, 96 h; 1 uM compound; RSV-induced cytopathic effect in Hep2 cells, 4 days, Cell TiterGlo; read-out: RSV % inh. @ 1 uM. As for the experimental part:
Antiviral activity against RSV was determined using an in vitro cytoprotection assay in Hep2 cells. […] The method used is similar to methods previously described in Chapman J et al., “RSV604 a novel inhibitor of respiratory syncytial virus replication,” Antimicrob Agents Chemother, 51(9):3346-53 (2007).
Hep2 cells were obtained from ATCC (Manassas, Va.) and maintained in MEM media supplemented with 10% fetal bovine serum and penicillin/streptomycin. Cells were passaged twice a week and kept at subconfluent stage. Commercial stock of RSV strain A2 (Advanced Biotechnologies, Columbia, Md.) was titered before compound testing to determine the appropriate dilution of the virus stock that generates desirable cytopathic effect in Hep2 cells.
For antiviral tests, Hep2 cells were seeded into 96-well plates 24 hours before the assay at a density of 3,000 cells/well. On a separate 96well plate, tested compounds were serially diluted in cell culture media. Eight concentrations in 3-fold serial dilution increments were prepared for each tested compound and 100 uL/well of each dilution was transferred in duplicate onto plates with seeded Hep2 cells. Subsequently, appropriate dilution of virus stock previously determined by titration was prepared in cell culture media and 100 uL/well was added to test plates containing cells and serially diluted compounds. Each plate included three wells of infected untreated cells and three wells of uninfected cells that served as 0% and 100% virus inhibition control, respectively. Following the infection with RSV, testing plates were incubated for 4 days in a tissue culture incubator. After the incubation, RSV-induced cytopathic effect was determined using a Cell TiterGlo reagent (Promega, Madison, Wis.) followed by a luminescence read-out. The percentage inhibition was calculated for each tested concentration relative to the 0% and 100% inhibition controls and the EC50 value for each compound was determined by non-linear regression as a concentration inhibiting the RSV-induced cytopathic effect by 50%. Ribavirin (purchased from Sigma, St. Louis, Mo.) was used as a positive control for antiviral activity.
In general terms: Damage to the host cells serves as the signal in cytopathic effect assays.
For `O=C(NC1CC1)c1cc2c(s1)-c1ccccc1N(C(=O)c1ccc(NC(=O)c3cccnc3N3CC[C@@H](O)C3)cc1)CC2` [Example 44], the inhibition at 1 µM amounted to 77%. For `O=C(NC1CC1)c1cc2c(s1)-c1ccccc1N(C(=O)c1ccc(NC(=O)c3cccnc3C(F)(F)F)cc1F)CC2` [Example 26] the value was 47%; for `O=C(NC1CC1)c1cc2c(s1)-c1ccccc1N(C(=O)c1ccc(NC(=O)c3cccnc3N3CCCC3)cc1)CC2` [Example 37], 100%.

Take `NS(=O)(=O)CCNC(=O)c1cc2c(s1)-c1ccccc1N(C(=O)c1ccc(NC(=O)c3cccnc3N3CCCC3)cc1)CC2` [Example 53]: the inhibition at 1 µM worked out at 1%.

Consider `O=C(NC1CC1)c1cc2c(s1)-c1ccccc1N(C(=O)c1ccc(NC(=O)c3ccncc3N3CCC3)cc1)CC2` [Example 12], for which the inhibition at 1 µM is 97%. For `Cc1cc(C(=O)Nc2ccc(C(=O)N3CCc4cc(C(=O)NC5CC5)sc4-c4ccccc43)cc2)c(N2CCCC2)nn1` [Example 65] the value was 95%; for `NC(=O)c1cc2c(s1)-c1ccccc1N(C(=O)c1ccc(NC(=O)c3cccnc3N3CCCC3)cc1)CC2` [Example 61], 84%. For `O=C(NC1CC1)c1cc2c(s1)-c1ccccc1N(C(=O)c1ccc(NC(=O)c3cccnc3N3CC[C@H](F)C3)cc1)CC2` [Example 39] the value was 94%; for `O=C(NCc1nccs1)c1cc2c(s1)-c1ccccc1N(C(=O)c1ccc(NC(=O)c3cccnc3N3CCCC3)cc1)CC2` [Example 52], 100%; for `C[C@H]1CCCN1c1ncccc1C(=O)Nc1ccc(C(=O)N2CCc3cc(C(=O)NC4CC4)sc3-c3ccccc32)cc1` [Example 40], 98%. Under `O=C(NC1CC1)c1cc2c(s1)-c1ccccc1N(C(=O)c1ccc(NC(=O)c3cccnc3Br)cc1)CC2` [Example 1] stands 76%; under `O=C(Nc1ccc(C(=O)N2CCc3cc(C(=O)NC4CC4)sc3-c3ccccc32)cc1)c1cc(N2CCC2)ccn1` [Example 18], 98%.

For the molecule `O=C(NC1CC1)c1cc2c(s1)-c1ccccc1N(C(=O)c1ccc(NC(=O)c3cnccc3C(F)(F)F)cc1)CC2` [Example 14], the inhibition at 1 µM came out at 100%. Turning to `O=C(NCCF)c1cc2c(s1)-c1ccccc1N(C(=O)c1ccc(NC(=O)c3cccnc3N3CCCC3)cc1)CC2` [Example 58], the inhibition at 1 µM was determined as 100%. For `Cn1nc(C(=O)Nc2ccc(C(=O)N3CCc4cc(C(=O)NC5CC5)sc4-c4ccccc43)cc2)c2ccccc21` [Example 27] the value was 41%; for `O=C(NC1CC1)c1cc2c(s1)-c1ccccc1N(C(=O)c1ccc(NC(=O)c3cccnc3N3CC(F)(F)C3)c(F)c1)CC2` [Example 64], 99%; for `COc1ccc(C(=O)Nc2ccc(C(=O)N3CCc4cc(C(=O)NC5CC5)sc4-c4ccccc43)cc2)c(C)c1` [Example 47], 100%.

Take `O=C(NC1CC1)c1cc2c(s1)-c1ccccc1N(C(=O)c1ccc(NC(=O)c3cccnc3N3CC4(COC4)C3)cc1)CC2` [Example 10]: the inhibition at 1 µM was 100%. As to `O=C(NC1CC1)c1cc2c(s1)-c1ccccc1N(C(=O)c1ccc(NC(=O)c3cccc4nccnc34)cc1)CC2` [Example 25], the inhibition at 1 µM was determined as 64%. Under `O=C(NCc1ccccn1)c1cc2c(s1)-c1ccccc1N(C(=O)c1ccc(NC(=O)c3cccnc3N3CCCC3)cc1)CC2` [Example 50] stands 100%; under `O=C(Nc1ccc(C(=O)N2CCc3cc(C(=O)N4CCCC4)sc3-c3ccccc32)cc1)c1cccnc1N1CCCC1` [Example 49], 30%; under `O=C(NC1CC1)c1cc2c(s1)-c1ccccc1N(C(=O)c1ccc(NC(=O)c3ccccc3I)cc1)CC2` [Example 2], 78%.

Turning to `C[C@@H]1CCCN1c1ncccc1C(=O)Nc1ccc(C(=O)N2CCc3cc(C(=O)NC4CC4)sc3-c3ccccc32)cc1` [Example 6], the inhibition at 1 µM came out at 100%. Under `O=C(NC1CC1)c1cc2c(s1)-c1ccccc1N(C(=O)c1ccc(NC(=O)c3cccnc3N3CCC(F)(F)C3)cc1)CC2` [Example 9] stands 100%; under `Cn1ccc2cccc(C(=O)Nc3ccc(C(=O)N4CCc5cc(C(=O)NC6CC6)sc5-c5ccccc54)cc3)c21` [Example 20], 99%. For `CC(C)(CO)NC(=O)c1cc2c(s1)-c1ccccc1N(C(=O)c1ccc(NC(=O)c3cccnc3N3CCCC3)cc1)CC2` [Example 56] the value was 93%. Consider `COC[C@@H]1CCCN1c1ncccc1C(=O)Nc1ccc(C(=O)N2CCc3cc(C(=O)NC4CC4)sc3-c3ccccc32)cc1` [Example 43], for which the inhibition at 1 µM turned out to be 99%.

As for `O=C(NC1CC1)c1cc2c(s1)-c1ccccc1N(C(=O)c1ccc(NC(=O)c3ccncc3Br)cc1)CC2` [Example 4], the inhibition at 1 µM is 78%. Under `O=C(NC1CC1)c1cc2c(s1)-c1ccccc1N(C(=O)c1ccc(NC(=O)c3cccnc3N3CC(F)C3)cc1)CC2` [Example 45] stands 100%; under `Cc1ccsc1C(=O)Nc1ccc(C(=O)N2CCc3cc(C(=O)NC4CC4)sc3-c3ccccc32)cc1` [Example 22], 90%. For `CN(C)C(=O)c1cc2c(s1)-c1ccccc1N(C(=O)c1ccc(NC(=O)c3cccnc3N3CCCC3)cc1)CC2` [Example 55] the value was 16%; for `CC(C)c1ccccc1C(=O)Nc1ccc(C(=O)N2CCc3cc(C(=O)NC4CC4)sc3-c3ccccc32)cc1` [Example 13], 99%. For `Cc1ccccc1C(=O)N1CCC(C(=O)Nc2ccc(C(=O)N3CCc4cc(C(=O)NC5CC5)sc4-c4ccccc43)cc2)CC1` [Example 28] the value was 15%; for `O=C(NC1CC1)c1cc2c(s1)-c1ccccc1N(C(=O)c1ccc(NC(=O)c3cccnc3N3CC(F)(F)C3)cc1)CC2` [Example 7], 100%. `O=C(N[C@@H]1CCOC1)c1cc2c(s1)-c1ccccc1N(C(=O)c1ccc(NC(=O)c3cccnc3N3CCCC3)cc1)CC2` [Example 57]: the inhibition at 1 µM is 95%. For `O=C(NC1CC1)c1cc2c(s1)-c1ccccc1N(C(=O)c1ccc(NC(=O)c3ccccc3Cc3ccccc3)cc1)CC2` [Example 17] the value was 100%; for `O=C(NC1CC1)c1cc2c(s1)-c1ccccc1N(C(=O)c1ccc(NC(=O)c3ncccc3Br)cc1)CC2` [Example 5], 79%; for `COc1ccc(C(=O)Nc2ccc(C(=O)N3CCc4cc(C(=O)NC5CC5)sc4-c4ccccc43)cc2)cc1` [Example 15], 97%.

In the case of `COC1CN(C(=O)c2cc3c(s2)-c2ccccc2N(C(=O)c2ccc(NC(=O)c4cccnc4N4CCCC4)cc2)CC3)C1` [Example 59], the inhibition at 1 µM was determined as 43%. For `Cn1ccnc1CNC(=O)c1cc2c(s1)-c1ccccc1N(C(=O)c1ccc(NC(=O)c3cccnc3N3CCCC3)cc1)CC2` [Example 62], the inhibition at 1 µM amounted to 90%. Under `C[C@H](NC(=O)c1cc2c(s1)-c1ccccc1N(C(=O)c1ccc(NC(=O)c3cccnc3N3CCCC3)cc1)CC2)C(N)=O` [Example 51] stands 46%; under `NC(=O)CCNC(=O)c1cc2c(s1)-c1ccccc1N(C(=O)c1ccc(NC(=O)c3cccnc3N3CCCC3)cc1)CC2` [Example 60], 35%.

For `O=C(NC1CC1)c1cc2c(s1)-c1ccccc1N(C(=O)c1ccc(NC(=O)c3ccccc3N3CCCC3)cc1)CC2` [Example 3], the inhibition at 1 µM is 100%.

In the case of `O=C(Nc1ccc(C(=O)N2CCc3cc(C(=O)NC4CC4)sc3-c3ccccc32)cc1)c1ccnc(N2CCC2)c1` [Example 21], the inhibition at 1 µM was found to be 94%.

As for `O=C(NC1CC1)c1cc2c(s1)-c1ccccc1N(C(=O)c1ccc(NC(=O)c3ccccc3-c3cccs3)cc1)CC2` [Example 11], the inhibition at 1 µM amounted to 99%. For `Cc1cc(C(=O)Nc2ccc(C(=O)N3CCc4cc(C(=O)NC5CC5)sc4-c4ccccc43)cc2)c(N2CC(F)(F)C2)nn1` [Example 67] the value was 98%; for `O=C(NC1CC1)c1cc2c(s1)-c1ccccc1N(C(=O)c1ccc(NC(=O)c3ccccc3-c3ccc(F)cc3)cc1)CC2` [Example 8], 100%. Under `Cn1nccc1C(=O)Nc1ccc(C(=O)N2CCc3cc(C(=O)NC4CC4)sc3-c3ccccc32)cc1` [Example 29] stands 22%; under `O=C(Nc1ccccn1)c1cc2c(s1)-c1ccccc1N(C(=O)c1ccc(NC(=O)c3cccnc3N3CCCC3)cc1)CC2` [Example 54], 99%. Under `O=C(NC1CC1)c1cc2c(s1)-c1ccccc1N(C(=O)c1ccc(NC(=O)c3ccncc3N3CC(F)C3)cc1)CC2` [Example 63] stands 99%; under `Cc1cc(C(=O)Nc2ccc(C(=O)N3CCc4cc(C(=O)NC5CC5)sc4-c4ccccc43)cc2)n(C(C)(C)C)n1` [Example 24], 78%.

The values above are taken from patent publication US8999969B2, “Anti-RSV compounds” (Gilead Sciences, Inc., priority 2009, dated 2015).
